PMC9611727, “Optimization of a Novel Mandelamide-Derived Pyrrolopyrimidine Series of PERK Inhibitors” (Pharmaceutics, 2022)

Key:
Test in all cases: scanMAX kinase panel
Format in all cases: binding
[1] = molecular target: T1, AURKB (Homo sapiens, UniProt Q96GD4); settings: read-out: % Control; for remaining binding at 1 µM: 1000 nM
T1 construct: purchased DiscoverX scanMAX
Source text: (§1) Supplemental Table S2. scanMAXSM Kinome Assay Results. Complete tabulated data of all 468 kinases from the panel, including
(§2) 403 wild-type and 65 mutant isoforms. […] Cmpd 11 and Cmpd 24

[2] = molecular target: T2, AXL (Homo sapiens, UniProt P30530); settings: read-out: % Control; for remaining binding at 1 µM: 1000 nM
T2 construct: purchased DiscoverX scanMAX
T2 sequence (P30530 26-894): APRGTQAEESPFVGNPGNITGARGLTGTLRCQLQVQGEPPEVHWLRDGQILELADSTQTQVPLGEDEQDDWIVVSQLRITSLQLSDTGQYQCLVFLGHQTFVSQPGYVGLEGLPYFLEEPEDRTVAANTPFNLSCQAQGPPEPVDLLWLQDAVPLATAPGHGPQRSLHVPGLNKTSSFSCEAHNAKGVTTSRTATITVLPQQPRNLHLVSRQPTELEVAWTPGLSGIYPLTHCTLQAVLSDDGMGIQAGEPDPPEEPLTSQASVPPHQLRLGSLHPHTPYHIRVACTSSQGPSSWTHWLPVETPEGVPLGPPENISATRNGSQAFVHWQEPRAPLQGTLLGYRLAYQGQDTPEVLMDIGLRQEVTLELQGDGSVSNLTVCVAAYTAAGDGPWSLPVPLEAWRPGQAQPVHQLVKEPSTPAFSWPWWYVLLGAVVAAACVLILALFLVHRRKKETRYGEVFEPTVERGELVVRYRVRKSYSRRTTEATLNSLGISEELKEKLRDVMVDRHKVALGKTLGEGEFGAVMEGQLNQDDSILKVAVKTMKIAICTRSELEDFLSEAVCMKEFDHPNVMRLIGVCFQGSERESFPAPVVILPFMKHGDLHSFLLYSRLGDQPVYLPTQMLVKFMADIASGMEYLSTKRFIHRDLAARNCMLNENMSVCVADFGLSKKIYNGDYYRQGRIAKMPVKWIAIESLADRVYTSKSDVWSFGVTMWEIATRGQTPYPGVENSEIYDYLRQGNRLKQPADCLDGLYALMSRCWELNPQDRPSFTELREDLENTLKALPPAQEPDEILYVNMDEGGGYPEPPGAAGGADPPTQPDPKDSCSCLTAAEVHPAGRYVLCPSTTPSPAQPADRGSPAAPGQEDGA
Source text: as §1, §2

[3] = molecular target: T3, FLT3(D835V) (Homo sapiens, UniProt P36888, D835V); settings: read-out: % Control; for remaining binding at 1 µM: 1000 nM
T3 construct: purchased DiscoverX scanMAX
T3 sequence (P36888 27-993 D835V): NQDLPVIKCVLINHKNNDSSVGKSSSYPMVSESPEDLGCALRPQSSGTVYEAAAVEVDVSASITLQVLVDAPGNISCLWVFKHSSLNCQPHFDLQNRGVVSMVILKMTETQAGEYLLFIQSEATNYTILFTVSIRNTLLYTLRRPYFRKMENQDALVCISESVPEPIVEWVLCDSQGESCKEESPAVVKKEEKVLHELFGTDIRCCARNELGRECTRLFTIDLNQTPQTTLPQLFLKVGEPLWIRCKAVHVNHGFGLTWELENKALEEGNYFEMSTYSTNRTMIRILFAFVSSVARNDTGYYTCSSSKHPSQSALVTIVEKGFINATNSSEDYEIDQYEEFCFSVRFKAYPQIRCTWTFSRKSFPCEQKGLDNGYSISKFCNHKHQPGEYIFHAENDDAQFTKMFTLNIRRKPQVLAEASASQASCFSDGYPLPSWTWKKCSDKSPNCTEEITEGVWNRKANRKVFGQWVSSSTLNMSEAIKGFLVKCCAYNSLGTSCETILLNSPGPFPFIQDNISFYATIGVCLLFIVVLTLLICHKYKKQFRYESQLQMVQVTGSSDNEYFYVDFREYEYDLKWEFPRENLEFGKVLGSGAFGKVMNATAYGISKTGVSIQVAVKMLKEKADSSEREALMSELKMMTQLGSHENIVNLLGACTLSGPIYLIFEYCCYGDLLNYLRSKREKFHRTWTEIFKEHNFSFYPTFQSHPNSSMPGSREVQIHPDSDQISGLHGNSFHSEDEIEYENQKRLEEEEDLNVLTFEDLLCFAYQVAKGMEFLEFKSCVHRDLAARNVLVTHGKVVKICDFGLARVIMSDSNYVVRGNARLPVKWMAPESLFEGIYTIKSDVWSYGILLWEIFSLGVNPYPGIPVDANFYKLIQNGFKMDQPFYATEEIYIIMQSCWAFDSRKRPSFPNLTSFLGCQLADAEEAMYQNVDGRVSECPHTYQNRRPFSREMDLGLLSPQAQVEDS
Source text: as §1, §2

[4] = test system: FLT3(ITD)
Source text: as §1, §2

[5] = molecular target: T4, LTK (Homo sapiens, UniProt P29376); settings: read-out: % Control; for remaining binding at 1 µM: 1000 nM
T4 construct: purchased DiscoverX scanMAX
T4 sequence (P29376 17-864): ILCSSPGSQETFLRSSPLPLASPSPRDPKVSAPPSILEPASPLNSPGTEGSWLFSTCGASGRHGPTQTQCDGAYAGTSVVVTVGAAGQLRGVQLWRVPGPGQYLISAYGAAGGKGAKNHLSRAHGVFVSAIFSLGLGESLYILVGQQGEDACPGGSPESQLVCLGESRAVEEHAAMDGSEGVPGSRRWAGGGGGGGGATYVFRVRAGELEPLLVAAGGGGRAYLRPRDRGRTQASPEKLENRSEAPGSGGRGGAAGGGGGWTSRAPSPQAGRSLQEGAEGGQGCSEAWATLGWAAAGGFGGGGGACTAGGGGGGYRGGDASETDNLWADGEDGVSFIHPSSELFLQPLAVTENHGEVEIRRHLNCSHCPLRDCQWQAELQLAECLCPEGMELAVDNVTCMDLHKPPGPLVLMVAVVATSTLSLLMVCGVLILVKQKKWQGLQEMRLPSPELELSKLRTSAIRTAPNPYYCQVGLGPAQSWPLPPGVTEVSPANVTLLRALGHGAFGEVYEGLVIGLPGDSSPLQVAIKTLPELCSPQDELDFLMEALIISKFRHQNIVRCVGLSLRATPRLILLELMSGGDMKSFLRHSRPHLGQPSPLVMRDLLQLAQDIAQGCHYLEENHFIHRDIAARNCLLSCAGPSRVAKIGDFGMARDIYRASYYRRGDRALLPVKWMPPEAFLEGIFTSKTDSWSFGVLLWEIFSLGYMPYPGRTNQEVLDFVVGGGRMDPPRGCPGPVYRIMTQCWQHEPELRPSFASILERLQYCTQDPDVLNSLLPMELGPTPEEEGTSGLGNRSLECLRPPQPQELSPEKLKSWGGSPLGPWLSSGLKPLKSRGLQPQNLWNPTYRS
Source text: as §1, §2

[6] = molecular target: T5, MEK5 (Homo sapiens, UniProt Q13163); settings: read-out: % Control; for remaining binding at 1 µM: 1000 nM
T5 construct: purchased DiscoverX scanMAX
T5 sequence (Q13163 1-448): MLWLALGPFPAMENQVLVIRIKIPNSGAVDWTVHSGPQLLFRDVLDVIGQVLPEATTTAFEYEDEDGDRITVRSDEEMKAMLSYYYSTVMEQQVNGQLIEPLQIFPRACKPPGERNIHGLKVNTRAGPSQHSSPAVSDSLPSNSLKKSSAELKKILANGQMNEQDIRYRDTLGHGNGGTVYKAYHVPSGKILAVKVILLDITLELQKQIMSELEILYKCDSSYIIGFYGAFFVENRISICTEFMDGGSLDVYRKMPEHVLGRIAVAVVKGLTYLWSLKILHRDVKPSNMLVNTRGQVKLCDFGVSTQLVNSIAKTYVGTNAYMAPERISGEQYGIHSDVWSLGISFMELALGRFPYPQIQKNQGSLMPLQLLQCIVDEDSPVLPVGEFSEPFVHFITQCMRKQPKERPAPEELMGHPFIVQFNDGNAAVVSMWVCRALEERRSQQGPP
Source text: as §1, §2

[7] = molecular target: T6, MKNK2 (Homo sapiens, UniProt Q9HBH9); settings: read-out: % Control; for remaining binding at 1 µM: 1000 nM
T6 construct: purchased DiscoverX scanMAX
T6 sequence (Q9HBH9 whole entry): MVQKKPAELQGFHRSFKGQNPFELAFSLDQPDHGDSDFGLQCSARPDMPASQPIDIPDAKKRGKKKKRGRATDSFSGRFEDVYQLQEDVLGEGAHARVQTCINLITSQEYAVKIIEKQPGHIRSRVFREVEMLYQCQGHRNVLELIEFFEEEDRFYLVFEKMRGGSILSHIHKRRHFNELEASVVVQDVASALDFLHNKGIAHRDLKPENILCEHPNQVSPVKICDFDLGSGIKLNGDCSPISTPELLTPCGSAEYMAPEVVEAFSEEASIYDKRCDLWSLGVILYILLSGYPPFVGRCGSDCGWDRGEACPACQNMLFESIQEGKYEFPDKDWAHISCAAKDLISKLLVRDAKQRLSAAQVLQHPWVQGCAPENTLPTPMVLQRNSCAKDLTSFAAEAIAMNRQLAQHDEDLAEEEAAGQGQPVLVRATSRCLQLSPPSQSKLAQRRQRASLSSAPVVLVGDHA
Source text: as §1, §2

[8] = molecular target: T7, PIK3CA(E542K) (Homo sapiens, UniProt P42336, E542K); settings: read-out: % Control; for remaining binding at 1 µM: 1000 nM
T7 construct: purchased DiscoverX scanMAX
Source text: as §1, §2

[9] = molecular target: T8, PIP5K1C (Homo sapiens, UniProt O60331); settings: read-out: % Control; for remaining binding at 1 µM: 1000 nM
T8 construct: purchased DiscoverX scanMAX
T8 sequence (O60331 whole entry): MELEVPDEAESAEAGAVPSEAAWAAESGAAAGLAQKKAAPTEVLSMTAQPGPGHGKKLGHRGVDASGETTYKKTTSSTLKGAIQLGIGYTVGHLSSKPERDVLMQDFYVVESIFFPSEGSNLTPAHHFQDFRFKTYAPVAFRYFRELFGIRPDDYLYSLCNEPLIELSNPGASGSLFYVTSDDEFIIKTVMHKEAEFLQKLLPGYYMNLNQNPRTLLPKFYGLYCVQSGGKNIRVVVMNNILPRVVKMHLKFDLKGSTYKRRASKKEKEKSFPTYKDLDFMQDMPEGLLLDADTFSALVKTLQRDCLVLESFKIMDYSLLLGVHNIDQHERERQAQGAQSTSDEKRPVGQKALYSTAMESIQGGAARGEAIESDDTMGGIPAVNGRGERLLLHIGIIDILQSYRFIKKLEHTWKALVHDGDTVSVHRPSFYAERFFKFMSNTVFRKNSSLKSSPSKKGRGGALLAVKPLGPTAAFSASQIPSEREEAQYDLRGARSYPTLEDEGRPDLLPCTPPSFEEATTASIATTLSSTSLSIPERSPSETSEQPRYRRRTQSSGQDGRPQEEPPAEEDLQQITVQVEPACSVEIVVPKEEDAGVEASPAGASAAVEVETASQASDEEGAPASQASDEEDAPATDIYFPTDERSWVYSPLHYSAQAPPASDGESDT
Source text: as §1, §2

[10] = molecular target: T9, TIE2 (Homo sapiens, UniProt Q02763); settings: read-out: % Control; for remaining binding at 1 µM: 1000 nM
T9 construct: purchased DiscoverX (scanMAX panel)
T9 sequence (Q02763 23-1124): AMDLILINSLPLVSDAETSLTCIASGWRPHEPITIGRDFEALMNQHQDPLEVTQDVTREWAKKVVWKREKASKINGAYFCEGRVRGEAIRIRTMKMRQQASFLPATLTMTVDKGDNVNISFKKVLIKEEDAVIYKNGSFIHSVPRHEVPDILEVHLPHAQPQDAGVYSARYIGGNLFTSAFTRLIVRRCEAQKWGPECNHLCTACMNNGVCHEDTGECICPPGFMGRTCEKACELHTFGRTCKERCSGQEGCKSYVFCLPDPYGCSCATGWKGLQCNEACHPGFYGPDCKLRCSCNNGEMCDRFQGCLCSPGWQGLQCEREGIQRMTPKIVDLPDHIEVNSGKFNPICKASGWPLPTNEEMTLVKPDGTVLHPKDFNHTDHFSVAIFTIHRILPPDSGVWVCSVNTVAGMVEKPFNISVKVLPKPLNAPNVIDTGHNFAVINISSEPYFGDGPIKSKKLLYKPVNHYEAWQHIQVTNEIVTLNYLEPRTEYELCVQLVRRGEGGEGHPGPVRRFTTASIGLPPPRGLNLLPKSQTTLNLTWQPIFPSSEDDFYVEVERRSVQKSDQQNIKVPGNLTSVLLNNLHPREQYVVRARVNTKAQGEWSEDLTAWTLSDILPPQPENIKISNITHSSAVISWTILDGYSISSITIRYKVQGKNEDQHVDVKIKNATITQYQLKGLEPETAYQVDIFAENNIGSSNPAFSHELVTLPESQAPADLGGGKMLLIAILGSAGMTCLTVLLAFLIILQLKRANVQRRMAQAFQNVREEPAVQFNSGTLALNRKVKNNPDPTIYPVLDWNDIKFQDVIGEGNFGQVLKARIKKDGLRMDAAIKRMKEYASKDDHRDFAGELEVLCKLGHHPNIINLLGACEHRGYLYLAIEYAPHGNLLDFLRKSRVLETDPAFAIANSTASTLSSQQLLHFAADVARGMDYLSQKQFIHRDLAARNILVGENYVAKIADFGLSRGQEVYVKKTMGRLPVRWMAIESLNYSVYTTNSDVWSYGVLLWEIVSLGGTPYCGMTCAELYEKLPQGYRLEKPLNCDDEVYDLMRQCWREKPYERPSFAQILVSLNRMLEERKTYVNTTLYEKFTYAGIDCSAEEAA
Source text: as §1, §2

[11] = molecular target: T10, TRKA (Homo sapiens, UniProt P04629); settings: read-out: % Control; for remaining binding at 1 µM: 1000 nM
T10 construct: purchased DiscoverX (scanMAX panel)
T10 sequence (P04629 33-796): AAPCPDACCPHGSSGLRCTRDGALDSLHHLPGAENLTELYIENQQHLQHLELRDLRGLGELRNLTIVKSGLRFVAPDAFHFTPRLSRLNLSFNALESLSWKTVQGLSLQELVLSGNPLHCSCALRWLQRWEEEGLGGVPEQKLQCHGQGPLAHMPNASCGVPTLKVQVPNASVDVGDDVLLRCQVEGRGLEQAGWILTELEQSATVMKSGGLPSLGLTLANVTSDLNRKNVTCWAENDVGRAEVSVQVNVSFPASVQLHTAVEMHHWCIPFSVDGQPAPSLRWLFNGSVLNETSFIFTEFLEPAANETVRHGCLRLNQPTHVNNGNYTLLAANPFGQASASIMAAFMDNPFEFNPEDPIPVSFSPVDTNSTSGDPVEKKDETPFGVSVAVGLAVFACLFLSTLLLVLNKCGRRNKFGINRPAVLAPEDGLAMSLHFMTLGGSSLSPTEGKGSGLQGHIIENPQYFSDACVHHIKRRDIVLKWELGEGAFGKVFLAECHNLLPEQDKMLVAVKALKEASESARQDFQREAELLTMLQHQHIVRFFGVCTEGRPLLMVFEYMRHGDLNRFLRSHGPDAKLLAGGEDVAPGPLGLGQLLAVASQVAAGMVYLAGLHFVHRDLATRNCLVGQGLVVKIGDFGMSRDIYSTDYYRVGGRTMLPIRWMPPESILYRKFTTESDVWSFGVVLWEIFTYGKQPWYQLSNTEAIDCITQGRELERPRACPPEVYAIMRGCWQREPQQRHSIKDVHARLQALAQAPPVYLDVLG
Source text: as §1, §2

[12] = molecular target: T11, YANK1 (Homo sapiens, UniProt Q8WU08); settings: read-out: % Control; for remaining binding at 1 µM: 1000 nM
T11 construct: purchased DiscoverX (scanMAX panel)
T11 sequence (Q8WU08 whole entry): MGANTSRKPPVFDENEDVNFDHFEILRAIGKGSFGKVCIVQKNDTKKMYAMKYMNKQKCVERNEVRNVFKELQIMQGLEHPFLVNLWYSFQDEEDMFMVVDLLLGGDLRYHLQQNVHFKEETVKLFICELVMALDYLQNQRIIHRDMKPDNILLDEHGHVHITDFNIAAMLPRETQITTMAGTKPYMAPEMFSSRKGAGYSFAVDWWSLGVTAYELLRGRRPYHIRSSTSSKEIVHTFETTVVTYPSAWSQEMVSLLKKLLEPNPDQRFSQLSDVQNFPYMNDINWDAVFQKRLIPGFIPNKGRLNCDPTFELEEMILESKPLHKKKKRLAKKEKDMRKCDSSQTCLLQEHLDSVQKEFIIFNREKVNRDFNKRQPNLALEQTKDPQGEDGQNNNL
Source text: as §1, §2

T1 sequence (Q96GD4 whole entry): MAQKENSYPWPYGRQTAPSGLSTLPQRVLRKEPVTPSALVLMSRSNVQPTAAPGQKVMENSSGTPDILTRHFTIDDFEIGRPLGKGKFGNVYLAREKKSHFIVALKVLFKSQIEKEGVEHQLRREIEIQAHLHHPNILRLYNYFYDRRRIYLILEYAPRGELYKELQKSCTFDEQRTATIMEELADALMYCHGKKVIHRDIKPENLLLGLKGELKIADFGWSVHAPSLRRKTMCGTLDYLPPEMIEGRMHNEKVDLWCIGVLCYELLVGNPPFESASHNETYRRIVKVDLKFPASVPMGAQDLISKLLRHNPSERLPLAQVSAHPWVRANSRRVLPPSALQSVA

Cc1cc(NC(=O)[C@H](O)c2cccc(F)c2)ccc1-c1cn(C)c2ncnc(N)c12 [Compound 11, (R)-N-(4-(4-amino-7-methyl-7H-pyrrolo[2,3-d]pyrimidin-5-yl)-3-methylphenyl)-2-(3-fluorophenyl)-2-hydroxy acetamide]
remaining binding at 1 µM [1]: 24%
remaining binding at 1 µM [2]: 56%
remaining binding at 1 µM [3]: 52%
% Control ([4]; 1000 nM): 34%
remaining binding at 1 µM [5]: 35%
remaining binding at 1 µM [6]: 1.1%
remaining binding at 1 µM [7]: 1.2%
remaining binding at 1 µM [8]: 89%
remaining binding at 1 µM [9]: 99%
remaining binding at 1 µM [10]: 14%
remaining binding at 1 µM [11]: 12%
remaining binding at 1 µM [12]: 28%

Cc1nc(N)c2c(-c3ccc(NC(=O)[C@H](O)c4cccc(F)c4)cc3C)cn(C)c2n1 [Compound 24]
remaining binding at 1 µM [1]: 90%
remaining binding at 1 µM [2]: 100%
remaining binding at 1 µM [3]: 100%
% Control ([4]; 1000 nM): 94%
remaining binding at 1 µM [5]: 100%
remaining binding at 1 µM [6]: 100%
remaining binding at 1 µM [7]: 58%
remaining binding at 1 µM [8]: 0.7%
remaining binding at 1 µM [9]: 34%
remaining binding at 1 µM [10]: 100%
remaining binding at 1 µM [11]: 67%
remaining binding at 1 µM [12]: 94%

Cc1nc(N)c2c(-c3ccc(NC(=O)[C@H](O)c4cccc(C(F)(F)F)c4)cc3C)cn(C)c2n1 [Compound 26]
remaining binding at 0.1 µM ([1]; 100 nM): 81%
remaining binding at 1 µM [1]: 70%
remaining binding at 0.1 µM ([2]; 100 nM): 99%
remaining binding at 1 µM [2]: 0.7%
remaining binding at 0.1 µM ([3]; 100 nM): 100%
remaining binding at 1 µM [3]: 8.5%
% Control ([4]; 100 nM): 95%
% Control ([4]; 1000 nM): 9.4%
remaining binding at 0.1 µM ([5]; 100 nM): 98%
remaining binding at 1 µM [5]: 22%
remaining binding at 0.1 µM ([6]; 100 nM): 100%
remaining binding at 1 µM [6]: 68%
remaining binding at 0.1 µM ([7]; 100 nM): 88%
remaining binding at 1 µM [7]: 3.9%
remaining binding at 0.1 µM ([8]; 100 nM): 100%
remaining binding at 1 µM [8]: 91%
remaining binding at 0.1 µM ([9]; 100 nM): 100%
remaining binding at 1 µM [9]: 91%
remaining binding at 0.1 µM ([10]; 100 nM): 100%
remaining binding at 1 µM [10]: 65%
remaining binding at 0.1 µM ([11]; 100 nM): 29%
remaining binding at 1 µM [11]: 3.4%
remaining binding at 0.1 µM ([12]; 100 nM): 96%
remaining binding at 1 µM [12]: 67%
